Assay results as given in US7910593B2, “Water-soluble prodrugs” (Chugai Seiyaku Kabushiki Kaisha, priority 2004, dated 2011).

Key:
[1] = Test Example 1: conversion of compound 2A into activated form in human serum; format: in vitro ADME; conditions: for compound 2A (measured values, %): human serum, 50 μM, 37° C.
Experimental: (§1) The percentages of compound 2A produced in Example 2 being converted into an activated form in sera of humans, mice, monkeys, and dogs were determined. The activated form is in a rapid equilibrium between the lactone form and the carboxylate form, which were quantified separately.
(§2) Compound 2A was incubated at 37° C. at a concentration of 50 μM in sera of humans, mice, monkeys, and dogs. Incubation was terminated at a given time (0, 30, 60, 120, and 360 minutes), and the samples were analyzed by HPLC after deproteinization treatments.
(§3) Conditions for the HPLC analysis are as follows: • HPLC conditions • Column: Develosil C30-UG-3, 3 μm, 50×4.6 mm I.D • Column Temperature: constant temperature at approximately 25° C. • Mobile phase: A: 10 mM phosphate buffer (pH4.7) • B: acetonitrile • /B (min): 90/10(0)→90/10(0.4)→40/60(6)→2/98(8)→90/10(9)→90/10(15)
(§4) Flow rate: 1.0 mL/min • Detection: photodiode array detector, detection wavelength 350 nm • Amount injected: 30 μL
(§5) Generally, camptothecins in solution are in a rapid equilibrium between a structure in which the carbonyl at position 3 forms a 6-membered cyclic ester with the oxygen at position 2, and its open-ring structure. The lactone form refers to the former condition and the carboxylate form refers to the latter condition.

[2] = Test Example 1: conversion of compound 2A into activated form in mouse serum; format: in vitro ADME; conditions: for compound 2A (measured values, %): mouse serum, 50 μM, 37° C.
Experimental: as §1, §2, §3, §4, §5

[3] = Test Example 1: conversion of compound 2A into activated form in monkey serum; format: in vitro ADME; conditions: for compound 2A (measured values, %): monkey serum, 50 μM, 37° C.
Experimental: as §1, §2, §3, §4, §5

[4] = Test Example 1: conversion of compound 2A into activated form in dog serum; format: in vitro ADME; conditions: for compound 2A (measured values, %): dog serum, 50 μM, 37° C.
Experimental: as §1, §2, §3, §4, §5

[5] = Test Example 5: conversion of compound 2A into activated form in human sera; format: in vitro ADME; conditions: for compound 2A (measured values, %): Test Example 5, human sera, 50 μM, 37° C.
Experimental: (§6) The percentages of compound 2A produced in Example 2 being converted into an activated form in sera of humans, rats, mice, monkeys, and dogs were determined. The activated form is in a rapid equilibrium between the lactone form and the carboxylate form, which were quantified separately.
(§7) Compound 2A was incubated at 37° C. at a concentration of 50 μM in sera of humans, mice, rats, monkeys, and dogs. Incubation was terminated at a given time (0, 30, 60, 120, and 360 minutes), and the samples were analyzed by HPLC after deproteinization treatments.
(§8) Conditions for the HPLC analysis are as follows: • HPLC conditions • Column: Develosil C30-UG-3, 3 μm, 35×4.6 mm I.D • Column Temperature: constant temperature at approximately 25° C. • Mobile phase: A: 10 mM phosphate buffer (pH4.7) • B: acetonitrile • /B (min): 90/10(0)→90/10(0.4)→40/60(6)→2/98(8)→90/10(9)→90/10(15) • Flow rate: 1.0 mL/min • Detection: photodiode array detector, detection wavelength 350 nm • Amount injected: 30 μL
as §5

[6] = Test Example 5: conversion of compound 2A into activated form in mouse sera; format: in vitro ADME; conditions: for compound 2A (measured values, %): Test Example 5, mouse sera, 50 μM, 37° C.
Experimental: as §6, §7, §8, §5

[7] = Test Example 5: conversion of compound 2A into activated form in rat sera; format: in vitro ADME; conditions: for compound 2A (measured values, %): Test Example 5, rat sera, 50 μM, 37° C.
Experimental: as §6, §7, §8, §5

[8] = Test Example 5: conversion of compound 2A into activated form in dog sera; format: in vitro ADME; conditions: for compound 2A (measured values, %): Test Example 5, dog sera, 50 μM, 37° C.
Experimental: as §6, §7, §8, §5

[9] = tested on: human colon cancer cell line HCT116; assay: Test Example 4: antitumor effect in HCT116 tumor-bearing nude mice; format: in vivo, BALB/c nude mice; conditions: once per week for three weeks
Experimental: Antitumor effects were determined for representative examples of the group of compounds of the present invention. Tumor-bearing mice were generated by subcutaneous transplantation of human colon cancer cell line HCT116 obtained from American Type Culture Collection (Virginia, USA) into the right flank of BALB/c nude mice purchased from Charles River Japan, and used for determination of antitumor effects.
After a one-week quarantine period, the purchased nude mice were subjected to subcutaneous transplantation of 5×10^6 HCT116 cells at their right flank. Mice with a tumor size reaching 200 mm^3 or so were subjected to the experiment.
The compounds were dissolved in 1 mM citric bufferes saline, pH 4, and administered intravenously. The administration was carried out once per week for three weeks, for a total of three administrations. The antitumor effect was determined as tumor growth inhibition (TGI) using the following equation. Tumor growth inhibition (TGI) (%)={(1−mean tumor volume change in the drug-treated group/mean tumor volume change in the control group)×100} The results are shown in Table 6.

CCCCCN1C=Nc2cccc3nc4c(c1c23)Cn1c-4cc2c(c1=O)COC(=O)[C@@]2(CC)OC(=O)CN(C)C(=O)CN.Cl [Compound 2A, (9S)-9-Ethyl-9-(glycyl-sarcosyloxy)-1-pentyl-1H,12H-pyrano[3″,4″:6′,7′]indolizino[1′,2′:6,5]pyrido[4,3,2-de]quinazoline-10,13(9H,15H)-dione hydrochloride]
conversion to the lactone form (in words) ([1]; human sera, Test Example 1): quickly converted to the lactone form
compound 2A (measured values, %) ([1]; incubation 0 minutes): 0%
compound 2A (measured values, %) ([1]; incubation 30 minutes): 0%
compound 2A (measured values, %) ([1]; incubation 60 minutes): 0%
compound 2A (measured values, %) ([1]; incubation 120 minutes): 0%
compound 2A (measured values, %) ([1]; incubation 360 minutes): 0%
conversion to the lactone form (in words) ([2]; mouse sera, Test Example 1): quickly converted to the lactone form
compound 2A (measured values, %) ([2]; incubation 0 minutes): 0%
compound 2A (measured values, %) ([2]; incubation 30 minutes): 0%
compound 2A (measured values, %) ([2]; incubation 60 minutes): 0%
compound 2A (measured values, %) ([2]; incubation 120 minutes): 0%
compound 2A (measured values, %) ([2]; incubation 360 minutes): 0%
conversion to the lactone form (in words) ([3]; monkey sera, Test Example 1): quickly converted to the lactone form
compound 2A (measured values, %) ([3]; incubation 0 minutes): 0%
compound 2A (measured values, %) ([3]; incubation 30 minutes): 0%
compound 2A (measured values, %) ([3]; incubation 60 minutes): 0%
compound 2A (measured values, %) ([3]; incubation 120 minutes): 0%
compound 2A (measured values, %) ([3]; incubation 360 minutes): 0%
conversion to the lactone form (in words) ([4]; dog sera, Test Example 1): quickly converted to the lactone form
compound 2A (measured values, %) ([4]; incubation 0 minutes): 0%
compound 2A (measured values, %) ([4]; incubation 30 minutes): 0%
compound 2A (measured values, %) ([4]; incubation 60 minutes): 0%
compound 2A (measured values, %) ([4]; incubation 120 minutes): 0%
compound 2A (measured values, %) ([4]; incubation 360 minutes): 0%
compound 2A (measured values, %) ([5]; incubation 0 minutes): 0%
compound 2A (measured values, %) ([5]; incubation 30 minutes): 0%
compound 2A (measured values, %) ([5]; incubation 60 minutes): 0%
compound 2A (measured values, %) ([5]; incubation 120 minutes): 0%
compound 2A (measured values, %) ([5]; incubation 360 minutes): 0%
conversion to the lactone form (in words) ([5]; human sera, Test Example 5): quickly converted to the lactone form
compound 2A (measured values, %) ([6]; incubation 0 minutes): 0%
compound 2A (measured values, %) ([6]; incubation 30 minutes): 0%
compound 2A (measured values, %) ([6]; incubation 60 minutes): 0%
compound 2A (measured values, %) ([6]; incubation 120 minutes): 0%
compound 2A (measured values, %) ([6]; incubation 360 minutes): 0%
conversion to the lactone form (in words) ([6]; mouse sera, Test Example 5): quickly converted to the lactone form
compound 2A (measured values, %) ([7]; incubation 0 minutes): 0%
compound 2A (measured values, %) ([7]; incubation 30 minutes): 0%
compound 2A (measured values, %) ([7]; incubation 60 minutes): 0%
compound 2A (measured values, %) ([7]; incubation 120 minutes): 0%
compound 2A (measured values, %) ([7]; incubation 360 minutes): 0%
conversion to the lactone form (in words) ([7]; rat sera, Test Example 5): quickly converted to the lactone form
compound 2A (measured values, %) ([8]; incubation 0 minutes): 0%
compound 2A (measured values, %) ([8]; incubation 30 minutes): 0%
compound 2A (measured values, %) ([8]; incubation 60 minutes): 0%
compound 2A (measured values, %) ([8]; incubation 120 minutes): 0%
compound 2A (measured values, %) ([8]; incubation 360 minutes): 0%
conversion to the lactone form (in words) ([8]; dog sera, Test Example 5): quickly converted to the lactone form
TGI (%) on Day 21 ([9]; 0.9 mg/kg intravenously): 45%
TGI (%) on Day 21 ([9]; 1.9 mg/kg intravenously): 52%
TGI (%) on Day 21 ([9]; 3.75 mg/kg intravenously): 72%
TGI (%) on Day 21 ([9]; 7.5 mg/kg intravenously): 74%
TGI (%) on Day 21 ([9]; 15 mg/kg intravenously): 85%
TGI (%) on Day 21 ([9]; 30 mg/kg intravenously): 97%
TGI (%) on Day 21 ([9]; 60 mg/kg intravenously): 110%
